The values that follow are results of earlier work, collected in patent publication US20070077296A1, “Pharmaceutical Preparation containing Meloxicam” (priority 2005, published 2007).

With `Cc1cnc(NC(=O)C2=C(O)c3ccccc3S(=O)(=O)N2C)s1` [meloxicam, 4-hydroxy-2-methyl-N-(5-methyl-2-thiazolyl)-2H-1,2-benzothiazine-3-carboxamide-1,1-dioxide], the solubility in water entry is reported as “hardly dissolve in water”.
